Laboratory results reported in publication PMC7563358, “Prolonging the Half-Life of Histone Deacetylase Inhibitor Belinostat via 50 nm Scale Liposomal Subcutaneous Delivery System for Peripheral T-Cell Lymphoma” (Cancers, 2020).
Values after ≈ are worked out from the molar mass of the structure shown. Where two headings read alike, the source gives them in different places.

Experiments:
[1] = In vivo toxicity: complete blood count and liver function markers; details: balb/c mice, subcutaneous, 0.333 mg/g, four hours after treatment
Description: BALB/c mice were administered with subcutaneous injections with doses of 0.33 mg/g of belinostat free drug and belinostat-loaded liposomal formulations. […] Blood was analyzed for number of erythrocytes, platelets (Plt) and total white blood cells using an automated blood analyzer (XT-1800i; Sysmex, Kobe, Japan). Hemoglobin, red blood cells and hepatic function were also analyzed. Reference values were obtained from Charles River Laboratory. ALT and AST were also evaluated.

HuT-78 cells = experiment: Cell cytotoxicity (CCK-8) on HuT-78; assay type: cell-based; details: Homo sapiens, HuT78; HuT-78, 72 h, CCK-8, n = 6
Description: (§1) The cutaneous T-cell lymphoma cell line (HuT-78) was purchased from the Bioresource Collection and Research Center (BCRC, Hsinchu, Taiwan). HuT-78 cells were incubated in 79% Iscove’s modified Dulbecco’s medium (IMDM) with 20% FBS and 1% liquid penicillin–streptomycin and kept in a humidified atmosphere containing 5% CO2 at 37 °C. HuT-78 cells were seeded on 96 well culture plates at a cell density of 1.5 × 10^5 cells per well. After overnight incubation, the medium was replaced with fresh medium containing belinostat free drug and belinostat-loaded liposomal formulations at final concentrations of 0.05, 0.1, 0.5, 1, 5 and 10 μM for 72 h. Cells were washed with PBS and reacted with 10 μL Cell Counting Kit-8 (CCK-8, Dojindo, Kumamoto, Japan) for 2 h. The absorbance was read at 450 nm by an enzyme-linked immunosorbent-assay reader (BioTek Epoch; Thermo Fisher Scientific, Waltham, MA, USA) to measure the quantity of surviving cells. IC50 was calculated using a four-parameter logistic function standard curve analysis of the dose response. The cell cytotoxicity was calculated using the following equation:(2) Cell viability %= ODsample−ODblank/ODcontrol−ODblank×100 % where OD denotes the optical density, ODcontrol represents 100% survival, and ODblank represents no cells.

[2] = cited from earlier work
[3] = In vitro release by dialysis method with fitting to release models; assay type: physicochemical
Description: An in vitro release study was performed using a dialysis method. Dialysis bags with a molecular-weight cutoff of 6000–8000 Da (pore size 1.8 nm; Orange Scientific, Braine-l’Alleud, Belgium) were soaked with distilled deionized water for 12 h before the experiment. Dialysis bags containing SN38-loaded liposomes, or SN38 solution, were subsequently incubated in flasks containing 15 mL medium (phosphate buffered saline/ethanol 1:1 v/v) in a 37 °C water bath. At appropriate intervals, 500 μL aliquots of the medium were withdrawn for analysis and immediately replaced with an equal volume of fresh medium. Release kinetics were investigated using different models, including zero-order, first-order and Higuchi kinetics. Correlation coefficients and each release equation were calculated from the respective plots.

[4] = pH 7.4; cited from earlier work
[5] = In vivo pharmacokinetics after subcutaneous administration; details: Balb/c mice, single dose 0.333 mg/g
Description: The in vivo pharmacokinetic study was performed on healthy male BALB/c mice (weight: 16–20 g) obtained from the Laboratory Animal Center of the National Science Council, Taipei, Taiwan. All animal experiments were conducted in accordance with institutional guidelines and approved by the Animal Care and Use Committee of Kaohsiung Medical University, Kaohsiung, Taiwan (KMUIACUC-107146). All animals were starved overnight prior to the experiments.
BALB/c mice were anesthetized by halothane vapor with a vaporizer system. Mice were randomly divided into four groups, including the control group. Belinostat was dissolved in a mixture of 10% DMSO, 10% Cremophor EL, 80% water and a series of liposomal formulations (PC group, PS group, and PC/PS mixture group). It was then administered by subcutaneous injection with a dose of 0.33 mg/g. At time intervals of 5, 10 and 30 min and 1, 2, 3 and 4 h, 100 μL tail vein blood samples were collected in heparin-containing tubes (Vacutainer; BD, Franklin Lakes, NJ, USA) and immediately centrifuged at 3000× g for 10 min. The plasma was collected and stored at −20 °C. Mice were killed at the final time point and liver, spleen, lungs and kidneys were collected, washed with PBS and stored at −20 °C.
Plasma samples (40 μL) were mixed with 20 μL of internal standard solution (carbamazepine […]) and 1000 μL of methanol was added to induce protein precipitation. The mixture was centrifuged at 3000× g for 10 min and the supernatant was evaporated under vacuum for 2 h. The final dry residue was resuspended in methanol and analyzed by HPLC. Organs were homogenized in 1 mL PBS at 17,800 rpm for 30 s. Subsequently, following the same process, homogenized organs were mixed with internal standard solution and acetonitrile and analyzed by HPLC.
Correlation coefficients for the pharmacokinetic compartmental model were calculated and predicted using Phoenix WinNonlin V8.1 software (Certara, St. Louis, MO, USA). The area under the concentration–time curve (AUC0–∞) was calculated using the trapezoidal rule. Half-life (T½) and the clearance (Cl), volume of distribution (Vd), absorption rate (Ka) and elimination rate (Ke) were also calculated by software.

[6] = set-up: method as in PMID 26921086; details: cited from earlier work
[7] = In vitro cytotoxicity of PBMCs; assay type: cell-based; details: male, human, peripheral blood mononuclear cells (PBMCs); 10 μM of belinostat
Description: as §1, with “Cells were washed with PBS and reacted with 10 μL Cell Counting Kit-8 (CCK-8, Dojindo, Kumamoto, Japan) for 2 h.” left out
Human peripheral blood mononuclear cells (PBMCs) were isolated from the peripheral blood from a healthy volunteer. […] After overnight incubation, the cytotoxicity assay was evaluated. […]

O=C(/C=C/c1cccc(S(=O)(=O)Nc2ccccc2)c1)NO [belinostat, Belinostat]
ALT [1]: 125 ± 4.57 U/L
Gra [1]: 13.47 ± 3.21%
Hb [1]: 13.63 ± 2.16 g/dL
Hct [1]: 39.58 ± 3.80%
Lym [1]: 78.21 ± 6.56%
Mon [1]: 10.95 ± 2.52%
Plt count [1]: 230 ± 45.72 10^9/L
RBC count [1]: 9.29 ± 1.28 10^12/L
ST [1]: 290 ± 34.48 U/L
WBC count [1]: 3.42 ± 0.67 10^9/L
IC50 (HuT-78 cells): 1.8 ± 0.16 µM
Patients with low platelet count [2]: 10–29%
Patients with low red blood cell counts ([2]; intravenous (IV) infusion over 30 min): more than 30%
Time until release completely exhausted [3]: ≤ 4 h
Initial burst release ([3]; within 2 h): 80%
Solubility [4]: 0.08 mg/mL (≈ 251 µM)
Cl ([5]; n = 3): 404.50 ± 138.35 L/h/kg
Ka (absorption rate) ([5]; n = 3): 5.06 ± 2.00 h⁻¹
Vd ([5]; n = 3): 1735.75 ± 414.86 L/kg
AUC(0-inf) ([5]; male, mouse, plasma, sc, n = 3): 17.5 ± 5.99 µg·h/mL
Cmax ([5]; male, mouse, plasma, sc, n = 3): 3.39 ± 0.74 µg/mL
Tmax ([5]; male, mouse, plasma, sc, n = 3): 0.69 ± 0.31 h
half-life ([5]; male, mouse, plasma, sc, n = 3): 3.29 ± 1.84 h
k el ([5]; male, mouse, plasma, sc, n = 3, read-out: Ke (elimination rate) (converted)): 6.94e-05 s⁻¹
half-life [6]: 1.1 h
viability at 72 h, 10 µM [7]: 20%
